Results reported in PMC7673538 (PLoS Biology, 2020).
Several values for one entry are separate records, joined by “and”; a condition that tells them apart may be missing. Identical values can stand only once. Like-named read-outs stand apart in the source and are kept apart here.

Legend:
HRV-B14 = experiment: microbe, parasite or virus in culture; type: cell-based, human rhinovirus; conditions: for EC50: Human rhinovirus sp.
[1] = tested on: all representative viruses; type: cell-based
CV-B3 = experiment: microbe, parasite or virus in culture; type: cell-based, coxsackievirus B3; conditions: Enterovirus B
CV-A24 = experiment: microbe, parasite or virus in culture; type: cell-based, coxsackievirus A24
EV-D68 = experiment: microbe, parasite or virus in culture; type: cell-based, enterovirus D68; conditions: for EC50: Enterovirus D
Rluc-CV-B3 = type: cell-based; conditions: Fig 3B

## COc1ccc(N(Cc2ccc(F)cc2)C(=O)c2cc[nH]c2)cc1 [Compound 12a, N-(4-Fluorobenzyl)-N-(4-methoxyphenyl)-1H-pyrrole-3-carboxamide]
HRV-B14; Concentration 0.0046 µM
  Figure 7 dose-response raw data, HRV_B14 (triplicate values): 15.2266 and 14.5606
HRV-B14; Concentration 0.0412 µM
  Figure 7 dose-response raw data, HRV_B14 (triplicate values): 11.568 and 20.943 and 17.6535
HRV-B14; Concentration 0.3704 µM
  Figure 7 dose-response raw data, HRV_B14 (triplicate values): 18.8048 and 20.943 and 27.193
HRV-B14; Concentration 1.1111 µM
  Figure 7 dose-response raw data, HRV_B14 (triplicate values): 18.8048 and 20.943 and 27.193
HRV-B14; Concentration 3.3333 µM
  Figure 7 dose-response raw data, HRV_B14 (triplicate values): 94.6272 and 95.7785 and 85.4167
HRV-B14; Concentration 11.1111 µM
  Figure 7 dose-response raw data, HRV_B14 (triplicate values): 94.6272 and 95.7785 and 85.4167
HRV-B14; Concentration 33.3333 µM
  Figure 7 dose-response raw data, HRV_B14 (triplicate values): 98.3946 and 104.147 and 102.94
HRV-B14; Concentration 100 µM
  Figure 7 dose-response raw data, HRV_B14 (triplicate values): 89.5652 and 94.1472 and 100.034
HRV-B14; HRVB14, HeLa R19, read-out: EC50 Exp1
  EC50: 1660 nM
HRV-B14; HRVB14, HeLa R19, read-out: EC50 HRV-B14
  EC50: 1450 ± 210 nM
[1]
  inhibition in single-cycle viral replication assay (in words): inhibited all representative viruses
CV-B3; CVB3, HAP1
  EC50: 20 ± 20 nM
CV-B3; CVB3, HAP1, read-out: EC50 Hap1 Average
  EC50: 23 nM
CV-B3; CVB3, HAP1, read-out: Exp 1 EC50 Hap1
  EC50: 40 nM
CV-B3; CVB3, HAP1, read-out: Exp 2 EC50 Hap1
  EC50: 6 nM
CV-A24; Enterovirus C, CVA24, HeLa R19, read-out: EC50 Average
  EC50: 3460 nM
CV-A24; Enterovirus C, CVA24, HeLa R19, read-out: EC50 CV-A24
  EC50: 3510 ± 220 nM
CV-A24; Enterovirus C, CVA24, HeLa R19, read-out: EC50 CV-A24 strain Joseph
  EC50: 3450 ± 420 nM
CV-A24; Enterovirus C, CVA24, HeLa R19, read-out: EC50 Exp1
  EC50: 3290 nM
CV-A24; Enterovirus C, CVA24, HeLa R19, read-out: EC50 Exp2
  EC50: 3730 nM
CV-A24; read-out: EC50 Exp1
  EC50: 3040 nM
CV-A24; read-out: EC50 Exp2
  EC50: 3870 nM
HeLa R19 cells
  cytotoxic effect in parallel to single-cycle assay (in words): none of them showed any cytotoxic effect
EV-D68
  cross-resistance of 19d-resistant EV-D68 virus pools (in words): cross-resistance
EV-D68; Concentration 0.001 µM
  Figure 7 dose-response raw data, EV-D68 (triplicate values): 11.1333 and 12.4782 and 12.9265
EV-D68; Concentration 0.0137 µM
  Figure 7 dose-response raw data, EV-D68 (triplicate values): 9.388 and 8.898 and 11.4747
EV-D68; Concentration 0.0412 µM
  Figure 7 dose-response raw data, EV-D68 (triplicate values): 11.1333 and 12.4782 and 12.9265
EV-D68; Concentration 0.1235 µM
  Figure 7 dose-response raw data, EV-D68 (triplicate values): 10.386 and 11.4321 and 12.9265
EV-D68; Concentration 0.3704 µM
  Figure 7 dose-response raw data, EV-D68 (triplicate values): 8.529 and 8.161 and 15.8928
EV-D68; Concentration 1.1111 µM
  Figure 7 dose-response raw data, EV-D68 (triplicate values): 91.9917 and 94.6194 and 110.886
EV-D68; Concentration 3.3333 µM
  Figure 7 dose-response raw data, EV-D68 (triplicate values): 101.502 and 102.252 and 110.761
EV-D68; Concentration 10 µM
  Figure 7 dose-response raw data, EV-D68 (triplicate values): 100.876 and 104.38 and 113.014
EV-D68; EVD68, HeLa R19, […], read-out: EC50 Exp1
  EC50: 3040 nM
EV-D68; EVD68, HeLa R19, read-out: EC50 Average
  EC50: 1250 nM
EV-D68; EVD68, HeLa R19, read-out: EC50 EV-D68
  EC50: 1080 ± 200 nM
EV-D68; EVD68, HeLa R19, read-out: EC50 EV-D68 strain 4310900947
  EC50: 1840 ± 400 nM
EV-D68; EVD68, HeLa R19, read-out: EC50 EV-D68 strain 4310901348
  EC50: 2720 ± 960 nM
EV-D68; EVD68, HeLa R19, read-out: EC50 EV-D68 strain 4310902042
  EC50: 1440 ± 230 nM
EV-D68; EVD68, HeLa R19, read-out: EC50 EV-D68 strain 4310902284
  EC50: 2310 ± 820 nM
EV-D68; EVD68, HeLa R19, read-out: EC50 EV-D68 strain 4311000742
  EC50: 1860 ± 160 nM
EV-D68; EVD68, HeLa R19, read-out: EC50 EV-D68 strain Fermon
  EC50: 1230 ± 160 nM
EV-D68; EVD68 / genotype 2c, HeLa R19, read-out: EC50 EV-D68 WT
  EC50: 1250 ± 90 nM
Rluc-CV-B3
  resistance profile against Rluc-CV-B3 2C mutants (in words): resembled that of the parental compound 1 and (S)-fluoxetine
